Holding throughout (type): in vivo, rat
Assay [1] concerns Lewis rats. Description: IPGTT after 2 mg/kg i.v. of VMAT2 ligands (FIG. 10). The conditions noted are these: 2 mg/kg body weight i.v.; for blood glucose excursion during IPGTT: vs vehicle (DMSO). The protocol:
Experimental animals. All animal studies were conducted as described in Example 1.
Anaesthetized rats were administered TBZ, THB, butamol, reserpine, emetine, or Compound 6 at a dose of approximately 2-3 mg/kg body weight by intravenous (i.v.) injection using the penile vein. TBZ, THB, butamol, reserpine, emetine, and Compound 6 were each separately dissolved in neat sterile dimethylsulfoxide (DMSO) and diluted (always more than 10 fold) in sterile saline. Rats received injections of vehicle alone (10% DMSO in saline) or reserpine (in saline). Animals recovered fully before receiving IPGTT.
(§1) Blood glucose, insulin, glucagon and intraperitoneal glucose tolerance tests measurements. Blood samples were collected from a superficial blood vessel in the tails of the rats following 6 hours of fasting between 12:00 noon and 2:00 p.m. The fasting blood glucose (BG) levels of the rats were measured using an Accu-Check blood glucose monitoring system (Roche Diagnostics, Sommerville, N.J.). Intraperitoneal glucose tolerance tests (IPGTT) were performed in 6 hour fasting un-anaesthetized animals. Briefly, after baseline BG measurements, animals received an intraperitoneal (i.p.) injection of 1 gram glucose/kilogram body weight. To minimize stress during the procedure, rats were handled by the same operator during acclimatization and later during weighing and IPGTT. Blood samples (approximately 30 μl) were collected at baseline and then again 15, 30, 45, 60, 90, and 120 minutes following i.p. glucose. BG concentrations were measured immediately on these samples and the remainder processed.

Assay [2] has as its system Lewis rats. Briefly: Intraperitoneal glucose tolerance test (IPGTT) in normal Lewis rats after a single i.v. dose. The following applies: for blood glucose excursion during IPGTT: Lewis rats 9-11 week old, 1.6 μg/gm body weight i.v. 60 min before IPGTT, vs vehicle. The protocol:
Experimental animals. All animal studies were reviewed and approved by the Institutional Animal Care and Use Committee (IACUC) at Columbia University's Medical School. All experiments were performed in accordance with the IACUC approved procedures. Normal male Lewis rats (100-400 grams) were obtained from Taconic (Taconic Inc., Germantown, N.Y.) and were housed under conditions of controlled humidity (55±5%), temperature (23±1° C.), and lighting (light on: 06.00-18.00 hours) with free access to standard laboratory rat chow and water. Rats were handled daily to minimize nonspecific stress for more than 7 days before the experiments began. In most experiments, it was necessary to measure blood glucose in fasting animals. For these groups, food was removed at the beginning of the light cycle, 6 hours before glucose levels were measured. Diabetes mellitus was induced by intraperitoneal injection of streptozotocin (Sigma Chemical Co., St. Louis, Mo.) (25 to 50 mg/kg) to animals (100 to 150 grams) that had been fasted 4 hours to enhance the effectiveness of STZ treatment.
The STZ solution was prepared fresh by dissolving it in 0.1 M citrate buffer (pH 5.5) and terminally sterile filtered. Control Lewis age and weight matched rats received a 0.5 ml/kg citrate vehicle alone via intraperitoneal injection. Sixty minutes prior to intraperitoneal glucose tolerance testing (IPGTT), anesthesia of male Lewis rats was induced with isoflurane (3-4% in oxygen) and maintained with 1-2% isoflurane in oxygen. Anaesthetized rats were administered TBZ at the indicated dose by intravenous (i.v.) injection using the penile vein. TBZ was dissolved in neat sterile dimethylsulfoxide (DMSO) and diluted (always more than 10 fold) in sterile saline. Rats received injections of vehicle alone (10% DMSO in saline) or reserpine (in saline). Animals recovered fully before receiving IPGTT.
as §1, with “30,” for “30, 45,”, “glucose administration.” for “glucose.”
Plasma was immediately separated by centrifugation at 3000×g for 15 minutes and then stored at −20° C. until analysis. Insulin and glucagon concentration measurements in rat plasma were performed by ELISA as per the manufacturer's instructions using kits from Linco Research Inc. (St. Charles, Mo.) and Alpco Diagnostics (Salem, N.H.), respectively. To validate the test, saline injections were performed by the same method. […] The area under the IPGTT glucose concentration×time curve (AUCIPGTT) was calculated by the trapezoidal rule. The area under the insulin or glucagon concentration×time curve (AUC INS or AUC GCG) was calculated in a similar manner.

Assay [3] has as its system Lewis rats. Description: IPGTT with TBZ, emetine and Compound 6 (FIG. 12). The conditions noted are these: single dose 2-3 mg/kg body weight. How it is done:
as §1, with “Experimental animals. All animal studies were conducted as described in Example 1. […] Rats received injections of vehicle alone (10% DMSO in saline) or reserpine (in saline). Animals recovered fully before receiving IPGTT. Blood glucose,” for “Blood glucose,”, “tests measurements. […] The fasting” for “tests measurements. Blood samples were collected from a superficial blood vessel in the tails of the rats following 6 hours of fasting between 12:00 noon and 2:00 p.m. The fasting”

This is an account of results in patent publication US20100204258A1, “METHODS AND COMPOSITIONS FOR MODULATING INSULIN SECRETION AND GLUCOSE METABOLISM” (The Trustees of Columbia University in the City of New York, priority 2007, published 2010).

“Also recorded” adds a separate entry of the source.

`COc1cc2c(cc1OC)C1CC(=O)C(CC(C)C)CN1CC2` (stereo not shown) [TBZ, tetrabenazine]: the “blood glucose levels during IPGTT” value in assay [1] (around sixty minutes following glucose challenge) is listed as “returned to control or near normal levels”. Also, in assay [1] (following glucose challenge), the “area under the curve in the IPGTT” value is “smaller area under the curve”. Also, the “blood glucose excursion during IPGTT” value in assay [1] is “reduce the blood glucose excursion”; in assay [1] (listed as Tetrabenazine) it was “reduced the blood glucose excursion”; in assay [2], “reduces the blood glucose excursion”; in assay [2] (listed as tetrabenazine), “significant change in the size and shape of the glucose disposition curve”; in assay [3] it was “consistently reduced the blood glucose excursion”. For the same compound, the “reduction of the glucose excursion (areas under the curve during IPGTT)” value in assay [2] (1.6 μg/gbm (gram body weight) i.v.) is given as 40-50%. In assay [2] (1.6 μg/gm body weight, n=4 experiments, p<0.05), the “AUC IPGTT, controls vs TBZ treated animals” value is “significantly higher”. The “rise in glucose concentration around 15 minutes after injection” value in assay [2] (IPGTT following TBZ administration) is “blunted”. In addition, the “baseline fasting glucose concentration” value in assay [2] (following TBZ administration, before glucose challenge, data not shown) is “no reproducible differences”. Also, in assay [2] (varying doses of TBZ before IPGTT), the “dose response of AUC IPGTT (normalized to baseline)” value is on record as “reduces the blood glucose excursion in a dose dependent manner; also recorded: complex dose response effect”. Further, the “area under the curve from IPGTT” value in assay [3] (separate experiments) is reported as “depress the area under the curve; also recorded: consistently suppressed the area under the curve”.
